{"source": "paper doi:10.1101/2020.07.24.219071v1", "about": "(biorxiv, 2020)", "assay_in_all_cases": "MicroScale Thermophoresis", "key": {"[1]": {"target": "Hematopoietic prostaglandin D synthase (HPGDS) (Homo sapiens, UniProt O60760)", "sequence (O60760 whole entry)": "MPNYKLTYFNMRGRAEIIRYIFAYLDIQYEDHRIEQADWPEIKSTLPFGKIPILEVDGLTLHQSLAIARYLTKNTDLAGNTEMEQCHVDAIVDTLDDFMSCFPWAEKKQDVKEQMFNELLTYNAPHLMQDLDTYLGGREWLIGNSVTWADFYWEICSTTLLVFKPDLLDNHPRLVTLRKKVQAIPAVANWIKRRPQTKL", "type": "binding"}, "[2]": {"target": "T1, Fatty acid-binding protein 4 (FABP4) (Homo sapiens, UniProt P15090)", "T1 sequence (P15090 2-132)": "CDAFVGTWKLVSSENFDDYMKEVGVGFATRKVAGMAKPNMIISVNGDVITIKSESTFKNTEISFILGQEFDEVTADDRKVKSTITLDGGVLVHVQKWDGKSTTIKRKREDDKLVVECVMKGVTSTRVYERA"}, "[3]": {"target": "Glutamate receptor 2 (GRIA2) (Homo sapiens, UniProt P42262)", "sequence (P42262 25-543 limits assumed)": "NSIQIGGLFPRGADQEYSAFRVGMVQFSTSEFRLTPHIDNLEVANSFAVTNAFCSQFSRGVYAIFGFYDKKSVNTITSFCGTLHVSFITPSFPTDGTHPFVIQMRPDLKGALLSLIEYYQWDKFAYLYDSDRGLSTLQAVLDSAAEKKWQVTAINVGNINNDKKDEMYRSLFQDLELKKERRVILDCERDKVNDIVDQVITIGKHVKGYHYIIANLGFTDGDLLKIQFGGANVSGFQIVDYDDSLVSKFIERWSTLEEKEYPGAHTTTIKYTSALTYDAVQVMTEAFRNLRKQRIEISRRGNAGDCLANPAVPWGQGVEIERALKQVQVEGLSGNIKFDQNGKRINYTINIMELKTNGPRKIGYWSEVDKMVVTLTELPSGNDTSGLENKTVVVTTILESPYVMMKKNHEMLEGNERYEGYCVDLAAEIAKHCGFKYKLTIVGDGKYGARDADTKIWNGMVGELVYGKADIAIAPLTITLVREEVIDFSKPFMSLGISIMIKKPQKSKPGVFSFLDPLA", "type": "binding"}, "Menin": {"target": "T2, Menin (Homo sapiens, UniProt O00255)", "T2 sequence (O00255 1-610)": "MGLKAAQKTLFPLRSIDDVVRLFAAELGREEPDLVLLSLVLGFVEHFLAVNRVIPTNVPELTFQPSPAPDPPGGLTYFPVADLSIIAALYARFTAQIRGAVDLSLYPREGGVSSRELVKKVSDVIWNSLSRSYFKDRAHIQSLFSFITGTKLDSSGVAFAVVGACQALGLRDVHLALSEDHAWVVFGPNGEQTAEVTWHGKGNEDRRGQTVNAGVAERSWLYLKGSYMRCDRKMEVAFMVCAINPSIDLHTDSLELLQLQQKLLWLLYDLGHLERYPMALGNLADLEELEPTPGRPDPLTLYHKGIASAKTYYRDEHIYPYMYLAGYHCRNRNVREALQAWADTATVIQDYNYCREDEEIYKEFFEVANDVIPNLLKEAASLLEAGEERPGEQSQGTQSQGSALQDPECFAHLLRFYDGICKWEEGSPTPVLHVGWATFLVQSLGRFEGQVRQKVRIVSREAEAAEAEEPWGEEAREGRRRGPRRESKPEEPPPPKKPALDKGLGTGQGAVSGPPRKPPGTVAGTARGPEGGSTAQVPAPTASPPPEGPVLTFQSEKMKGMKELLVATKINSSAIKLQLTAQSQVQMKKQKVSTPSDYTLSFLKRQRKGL", "type": "binding"}, "[4]": {"target": "Nicotinamide/nicotinic acid mononucleotide adenylyltransferase 1 (NMNAT1) (Homo sapiens, UniProt Q9HAN9)", "sequence (Q9HAN9 whole entry)": "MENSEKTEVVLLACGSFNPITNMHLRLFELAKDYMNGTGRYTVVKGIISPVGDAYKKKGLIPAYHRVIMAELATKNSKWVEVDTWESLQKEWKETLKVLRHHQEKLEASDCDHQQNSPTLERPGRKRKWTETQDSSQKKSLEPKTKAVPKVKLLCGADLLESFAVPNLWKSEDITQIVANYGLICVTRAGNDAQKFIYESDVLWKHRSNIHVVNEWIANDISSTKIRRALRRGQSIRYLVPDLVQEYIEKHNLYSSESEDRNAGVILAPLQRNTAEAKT", "type": "binding"}}, "data": [{"smiles": "C[S+]([O-])c1ccc(-c2nc(-c3ccncc3)c(-c3ccc(F)cc3)[nH]2)cc1", "note": "(centres unmarked) [SB203580]", "values": [{"measurement": "Kd", "setting": "[1]", "result": "30.9 ± 4.54", "unit": "µM"}, {"measurement": "Kd", "setting": "[2]", "result": "> 500", "unit": "µM"}, {"measurement": "Kd", "setting": "[3]", "result": "> 500", "unit": "µM"}, {"measurement": "Kd", "setting": "Menin", "result": "> 500", "unit": "µM"}, {"measurement": "Kd", "setting": "[4]", "result": "> 500", "unit": "µM"}]}]}
